Patent US20070025920A1, “Stable Pharmaceutical Solution Formulations for Pressurized Metered Dose Inhalers” (priority 2004, published 2007)
Read-outs that look alike come from different tables or passages of the source.

Tests used:
[1] = 4 μg per actuation, HCl-stabilised HFA 134a/ethanol solution; stored upright at 5° C.; after nine months; mean of 2 cans; cited from earlier work
[2] = Stability study of the 1 μg/63 μl formulation with 15.2 M phosphoric acid, upright and inverted cans at 40° C. and 75% relative humidity; format: physicochemical; settings: 15% w/w ethanol, HFA 134a, 15.2 M phosphoric acid 0.001 to 0.0027% w/w, six months
Procedure: The formulation of Table 4 (120 actuations/canister, overage of 30 actuations) was filled in aluminum canisters having the internal surface coated with Teflon and fitted with commercial valves having a 63 μl metering chamber. A stability study was carried out by storing the formulation in upright and inverted cans at 40° C. and 75% relative humidity.

[3] = Stability study of 1 μg/63 μl formulations with 0.1M hydrochloric acid, upright cans at 40° C. and 75% relative humidity; format: physicochemical; settings: 15 w/w ethanol, HFA 134a, three months
Procedure: Two aluminum canisters having the internal surface coated with Teflon and fitted with commercial valves having a 63 μl metering chamber were filled with the following formulations shown in Table 3. A stability study was carried out by storing the formulations in upright cans at 40° C. and 75% relative humidity.

[4] = 3.5 μg/50 μl, cited from earlier work
[5] = Stability of the TA 2005 + budesonide HFA 134a composition with phosphoric acid, 40° C. and 75% relative humidity; format: physicochemical; settings: TA 2005 1 μg + budesonide 200 μg/actuation, phosphoric acid 85% 0.0032 or 0.0064% w/w, 0.15% w/w water, three months
Procedure: Two compositions were tested containing TA 2005 and budesonide as active ingredients and two different concentrations of phosphoric acid.
Volume of the valve: 63 μl; strength: TA 2005 1 μg+budesonide 200 μg/actuation; no. of actuations: 120 (34 overfilling doses).
The two active ingredients in the compositions were stable after three months storage at 40° C. and 75% relative humidity, giving residual percent amounts of at least 95% TA 2005 and about 100% of Budesonide.

COc1ccc(C[C@@H](C)NC[C@H](O)c2ccc(O)c3[nH]c(=O)ccc23)cc1.Cl [TA 2005, 8-hydroxy-5-[(1R)-1-hydroxy-2-[[(1R)-2-(4-methoxyphenyl)-1-methylethyl]amino]ethyl]-2(1H)-quinolinone hydrochloride]
TA 2005 assay [1]: higher than 95%
residual percent amount of TA 2005 [2]: up to 98%
percent amount of TA 2005 ([3]; hydrochloric acid 0.1M 0.018 w/w): 73%
percent amount of TA 2005 ([3]; hydrochloric acid 0.1M 0.027 w/w): 77%
TA 2005 content, per cent nominal drug concentration ([4]; HFA 134a, 12% w/w ethanol, 1.0% w/w isopropyl myristate, 1.0 μl 0.08M HCl per can (apparent pH about 4.8), Initial): 100.0 per cent
TA 2005 content, per cent nominal drug concentration ([4]; HFA 134a, 12% w/w ethanol, 1.0% w/w isopropyl myristate, 1.4 μl 0.08M HCl per can (apparent pH about 3.2), Initial): 100.0 per cent
TA 2005 content, per cent nominal drug concentration ([4]; 1.0 μl 0.08M HCl per can, 50° C., 22 days upright): 98.3 per cent
TA 2005 content, per cent nominal drug concentration ([4]; 1.0 μl 0.08M HCl per can, 50° C., 83 days upright): 99.4 per cent
TA 2005 content, per cent nominal drug concentration ([4]; 1.4 μl 0.08M HCl per can, 50° C., 22 days upright): 98.2 per cent
TA 2005 content, per cent nominal drug concentration ([4]; 1.4 μl 0.08M HCl per can, 50° C., 83 days upright): 98.8 per cent
residual percent amount [5]: at least 95%
